# Patent publication US20260022118A1, “HETEROCYCLIC COMPOUNDS AS NRAS INHIBITORS” (Board of Regents, The University of Texas System, priority 2023, published 2026)
# Tested on: THP-1 cells expressing G12D (NRAS G12D)
# Test: Inhibition of NRAS G12D-mediated phosphorylation of ERK (AlphaLISA p-ERK1/2) in THP-1 cells
# Format: cell-based
# Conditions: Homo sapiens, THP-1, 2 h, 2 hours incubation, HBSS with 0% or 10% FBS, p-ERK1/2 (Thr202/Tyr204) AlphaLISA, read-out: pERK THP-1 IC50
# Method: Inhibition of NRAS G12D-Mediated Phosphorylation of ERK by Exemplary Compounds of Formulas I, II, and III.
# This Example illustrates that exemplary compounds and salts thereof described herein inhibit the phosphorylation of ERK downstream of NRAS G12D.
# THP-1 cells (ATCC TIB-202) expressing G12D were maintained in RPMI-1640 medium supplemented with 10% fetal bovine serum (FBS), 0.05 mM 2-mercaptoethanol, and penicillin/streptomycin. Cells (20,000/well) were seeded onto a 384 well plate in 20 μL of HBSS supplemented with 0% or 10% FBS. Cells were incubated in the absence or presence of various concentrations of test compound (final 1% DMSO) for 2 hours. p-ERK expression was assessed using the AlphaLISA SureFire Ultra p-ERK1/2 (Thr202/Tyr204) (PerkinElmer®, ALSU-PERK-A10K) following manufacturer recommendation. Plates were read on a PerkinElmer® Envision Multimode plate reader. Dose-response curves were analyzed using IC50 regression curve fitting (GeneData Screener). Curves were plotted as a percent control and normalized by high controls without inhibitor (100%), and low controls (0%) containing 1 μM of trametinib, a potent MEK inhibitor.
row,SMILES,IC50 [nM]
1,"C#Cc1c(F)ccc2cc(O)cc(-c3nc(C(=C)C)c4c([C@H]5[C@@H]6CNC[C@@H]65)nn(C5CC5)c4c3F)c12 [Example 53, 4-(3-((1R,5S,6r)-3-azabicyclo[3.1.0]hexan-6-yl)-1-cyclopropyl-7-fluoro-4-(prop-1-en-2-yl)-1H-pyrazolo[4,3-c]pyridin-6-yl)-5-ethynyl-6-fluoronaphthalen-2-ol]",5.81
2,"C#Cc1c(F)ccc2cc(O)cc(-c3nc(C4CCC4)c4c([C@H]5[C@@H]6CNC[C@@H]65)nn(C5CC5)c4c3F)c12 [Example 54, 4-[3-(3-azabicyclo[3.1.0]hexan-6-yl)-4-cyclobutyl-1-cyclopropyl-7-fluoro-pyrazolo[4,3-c]pyridin-6-yl]-5-ethynyl-6-fluoro-naphthalen-2-ol]",16.4
3,"C#Cc1c(F)ccc2cc(O)cc(-c3nc(C(F)(F)F)c4c([C@H]5[C@@H]6CNC[C@@H]65)nn(C5CC5)c4c3F)c12 [Example 55, 4-[3-(3-azabicyclo[3.1.0]hexan-6-yl)-1-cyclopropyl-7-fluoro-4-(trifluoromethyl)pyrazolo[4,3-c]pyridin-6-yl]-5-ethynyl-6-fluoro-naphthalen-2-ol]",499
4,"C#Cc1c(F)ccc2cc(O)cc(-c3nc(C(C)(C)O)c4c([C@H]5[C@@H]6CNC[C@@H]65)nn(C5CC5)c4c3F)c12 [Example 56, 4-[3-(3-azabicyclo[3.1.0]hexan-6-yl)-1-cyclopropyl-7-fluoro-4-(1-hydroxy-1-methyl-ethyl)pyrazolo[4,3-c]pyridin-6-yl]-5-ethynyl-6-fluoro-naphthalen-2-ol]",152
5,"C#Cc1c(F)ccc2cc(O)cc(-c3nc(OC4COC4)c4c([C@H]5[C@@H]6CNC[C@@H]65)nn(C5CC5)c4c3F)c12 [Example 71, 4-(3-((1R,5S,6r)-3-azabicyclo[3.1.0]hexan-6-yl)-1-cyclopropyl-7-fluoro-4-(oxetan-3-yloxy)-1H-pyrazolo[4,3-c]pyridin-6-yl)-5-ethynyl-6-fluoronaphthalen-2-ol]",> 10000
6,"C#Cc1c(F)ccc2cc(O)cc(-c3nc(N(C)C)c4c([C@H]5[C@@H]6CNC[C@@H]65)nn(C5CC5)c4c3F)c12 [Example 78, 4-(3-((1R,5S,6r)-3-azabicyclo[3.1.0]hexan-6-yl)-1-cyclopropyl-4-(dimethylamino)-7-fluoro-1H-pyrazolo[4,3-c]pyridin-6-yl)-5-ethynyl-6-fluoronaphthalen-2-ol]",89.2
7,"C#Cc1c(F)ccc2cc(O)cc(-c3nc(N4CCC4)c4c([C@H]5[C@@H]6CNC[C@@H]65)nn(C5CC5)c4c3F)c12 [Example 79, 4-(4-(azetidin-1-yl)-3-((1R,5S,6r)-3-azabicyclo[3.1.0]hexan-6-yl)-1-cyclopropyl-7-fluoro-1H-pyrazolo[4,3-c]pyridin-6-yl)-5-ethynyl-6-fluoronaphthalen-2-ol]",603
8,"C#Cc1c(F)ccc2cc(O)cc(-c3nc(N(CC)CC)c4c([C@H]5[C@@H]6CNC[C@@H]65)nn(C5CC5)c4c3F)c12 [Example 80, 4-(3-((1R,5S,6r)-3-azabicyclo[3.1.0]hexan-6-yl)-1-cyclopropyl-4-(diethylamino)-7-fluoro-1H-pyrazolo[4,3-c]pyridin-6-yl)-5-ethynyl-6-fluoronaphthalen-2-ol]",126
9,"C#Cc1c(F)ccc2cc(O)cc(-c3nc(N(C)CC)c4c([C@H]5[C@@H]6CNC[C@@H]65)nn(C5CC5)c4c3F)c12 [Example 81, 4-(3-((1R,5S,6r)-3-azabicyclo[3.1.0]hexan-6-yl)-1-cyclopropyl-4-(ethyl(methyl)amino)-7-fluoro-1H-pyrazolo[4,3-c]pyridin-6-yl)-5-ethynyl-6-fluoronaphthalen-2-ol]",74.6
10,"C#Cc1c(F)ccc2cc(O)cc(-c3nc(C(C)=O)c4c([C@H]5[C@@H]6CNC[C@@H]65)nn(C5CC5)c4c3F)c12 [Example 84, 1-(3-((1R,5S,6r)-3-azabicyclo[3.1.0]hexan-6-yl)-1-cyclopropyl-6-(8-ethynyl-7-fluoro-3-hydroxynaphthalen-1-yl)-7-fluoro-1H-pyrazolo[4,3-c]pyridin-4-yl)ethan-1-one]",458
11,"C#Cc1c(F)ccc2cc(O)cc(-c3nc(C(C)O)c4c([C@H]5[C@@H]6CNC[C@@H]65)nn(C5CC5)c4c3F)c12 (stereo partly drawn) [Example 87, 4-(3-((1R,5S,6r)-3-azabicyclo[3.1.0]hexan-6-yl)-1-cyclopropyl-7-fluoro-4-(1-hydroxyethyl)-1H-pyrazolo[4,3-c]pyridin-6-yl)-5-ethynyl-6-fluoronaphthalen-2-ol]",112
12,"C#Cc1c(F)ccc2cc(O)cc(-c3nc(C(=C)C)c4c(N5C[C@@H]6CC[C@H]5CN6)nn(C5CC5)c4c3F)c12 [Example 89, 4-(3-((1S,4S)-2,5-diazabicyclo[2.2.2]octan-2-yl)-1-cyclopropyl-7-fluoro-4-(prop-1-en-2-yl)-1H-pyrazolo[4,3-c]pyridin-6-yl)-5-ethynyl-6-fluoronaphthalen-2-ol]",3730
13,"C#Cc1c(F)ccc2cc(O)cc(-c3ncc4c(NCCN)nn(C)c4c3F)c12 [Example 93, 4-(3-((2-aminoethyl)amino)-7-fluoro-1-methyl-1H-pyrazolo[4,3-c]pyridin-6-yl)-5-ethynyl-6-fluoronaphthalen-2-ol]",9260
14,"C#Cc1c(F)ccc2cc(O)cc(-c3ncc4c(C5[C@H]6CNC[C@@H]56)nn5c4c3OCC5)c12 (stereo partly drawn) [Example 94, 4-[3-[(1S,5R)-3-azabicyclo[3.1.0]hexan-6-yl]-9-oxa-1,2,6-triazatricyclo[6.3.1.04,12]dodeca-2,4,6,8(12)-tetraen-7-yl]-5-ethynyl-6-fluoro-naphthalen-2-ol]",> 10000
15,"C#Cc1c(F)ccc2cc(O)cc(-c3nc4c5c(nn(C)c5c3F)N3C[C@H]5CC[C@H](N5)[C@H]3CO4)c12 [Example 95, 5-ethynyl-6-fluoro-4-[(4R,7S,8S)-14-fluoro-16-methyl-10-oxa-2,12,16,17,19-pentazapentacyclo[9.6.1.14,7.02,8.015,18]nonadeca-1(17),11(18),12,14-tetraen-13-yl]naphthalen-2-ol]",> 10000
16,"C#Cc1c(F)ccc2cc(O)cc(-c3ncc4c(C5[C@H]6CNC[C@@H]56)nc(C)n4c3F)c12 (stereo partly shown) [Example 98, 4-[1-(3-azabicyclo[3.1.0]hexan-6-yl)-5-fluoro-3-methyl-imidazo[1,5-a]pyrazin-6-yl]-5-ethynyl-6-fluoro-naphthalen-2-ol]",9270
17,"C#Cc1c(F)ccc2cc(O)cc(-c3ncc4c([C@H]5[C@@H]6CNC(COC)[C@@H]65)nn(C5CC5)c4c3F)c12 (stereo partly drawn) [Example 99, 4-(1-cyclopropyl-7-fluoro-3-((1S,5R,6S)-2-(methoxymethyl)-3-azabicyclo[3.1.0]hexan-6-yl)-1H-pyrazolo[4,3-c]pyridin-6-yl)-5-ethynyl-6-fluoronaphthalen-2-ol]",> 10000
18,"C#Cc1c(F)ccc2cc(O)cc(-c3ncc4c(N5C[C@@H]6CC[C@H]5CN6)nn(C5CC5)c4n3)c12 [Example 101, 4-(3-((1S,4S)-2,5-diazabicyclo[2.2.2]octan-2-yl)-1-cyclopropyl-1H-pyrazolo[3,4-d]pyrimidin-6-yl)-5-ethynyl-6-fluoronaphthalen-2-ol]",> 10000
19,"C#Cc1c(F)ccc2cc(O)cc(-c3ncc4c(N5C[C@@H]6CC[C@H]5CN6)c(C)n(C)c4c3F)c12 [Example 107, 4-(3-((1S,4S)-2,5-diazabicyclo[2.2.2]octan-2-yl)-7-fluoro-1,2-dimethyl-1H-pyrrolo[3,2-c]pyridin-6-yl)-5-ethynyl-6-fluoronaphthalen-2-ol]",> 10000
